Test results reported in ChEMBL document CHEMBL1201862, “PubChem BioAssay data set” (2004).
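Each compound was tested at five concentrations against cells in 96-well plates for 48 hours. The concentration for 50% growth inhibition is given as GI50.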 Calls of active or inactive are those of the source. Rule as the data show it: active = GI50 up to about 1.1 µM and inactive = higher.

Columns and labels:
Test in all cases: NCI-60 cell line screen, 48 h
[1] = system: A498
[2] = system: A549
[3] = system: CAKI-1
[4] = system: CCRF-CEM
[5] = system: COLO 205
[6] = system: DLD-1
[7] = system: DMS-114
[8] = system: DMS-273
[9] = system: EKVX
[10] = system: HCC 2998
[11] = system: HCT-116
[12] = system: HCT-15
[13] = system: HL-60
[14] = system: HOP-18
[15] = system: HOP-62
[16] = system: HOP-92
[17] = system: HT-29
[18] = system: IGROV-1
[19] = system: K562
[20] = system: KM-20L2
[21] = system: KM12
[22] = system: LOX IMVI
[23] = system: M19-MEL
[24] = system: MCF7
[25] = system: MOLT-4
[26] = system: Malme-3M
[27] = system: NCI-H226
[28] = system: NCI-H23
[29] = system: NCI-H460
[30] = system: NCI-H522
[31] = system: NCI/ADR-RES
[32] = system: OVCAR-3
[33] = system: OVCAR-4
[34] = system: OVCAR-5
[35] = system: OVCAR-8
[36] = system: RPMI-8226
[37] = system: RXF 393
[38] = system: SF-268
[39] = system: SF-295
[40] = system: SF-539
[41] = system: SK-MEL-28
[42] = system: SK-MEL-2
[43] = system: SK-MEL-5
[44] = system: SK-OV-3
[45] = system: SN12C
[46] = system: SNB-19
[47] = system: SNB-75
[48] = system: SNB-78
[49] = system: SW-620
[50] = system: U-251
[51] = system: UACC-257
[52] = system: UACC-62
[53] = system: UO-31
[54] = system: XF498

## CCOC(=O)C(C)NC(=O)N(C)C12CC3CC(CC(C3)C1)C2 (configuration not stated)
[1]
  GI50: 116 µM (inactive)
[2]
  GI50: 197 µM (inactive)
[3]
  GI50: 231 µM (inactive)
[4]
  GI50: 138 µM (inactive)
[5]
  GI50: 140 µM (inactive)
[6]
  GI50: 50.7 µM (inactive)
[7]
  GI50: 115 µM (inactive)
[8]
  GI50: 209 µM (inactive)
[9]
  GI50: 450 µM (inactive)
[10]
  GI50: 268 µM (inactive)
[11]
  GI50: 173 µM (inactive)
[12]
  GI50: 187 µM
[13]
  GI50: > 96.8 µM (inactive)
[14]
  GI50: 210 µM (inactive)
[15]
  GI50: 316 µM (inactive)
[16]
  GI50: 20.7 µM (inactive)
[17]
  GI50: 281 µM (inactive)
[18]
  GI50: 286 µM (inactive)
[19]
  GI50: 169 µM (inactive)
[20]
  GI50: 199 µM (inactive)
[21]
  GI50: 179 µM (inactive)
[22]
  GI50: 116 µM (inactive)
[23]
  GI50: 177 µM (inactive)
[24]
  GI50: 139 µM (inactive)
[25]
  GI50: 63.2 µM (inactive)
[26]
  GI50: 194 µM (inactive)
[27]
  GI50: 233 µM (inactive)
[28]
  GI50: 185 µM (inactive)
[29]
  GI50: 192 µM (inactive)
[30]
  GI50: 135 µM (inactive)
[31]
  GI50: 151 µM (inactive)
[32]
  GI50: 149 µM (inactive)
[33]
  GI50: 175 µM (inactive)
[34]
  GI50: > 500 µM (inactive)
[35]
  GI50: 265 µM (inactive)
[36]
  GI50: 125 µM (inactive)
[37]
  GI50: 153 µM (inactive)
[38]
  GI50: 319 µM (inactive)
[39]
  GI50: 203 µM (inactive)
[40]
  GI50: 344 µM (inactive)
[41]
  GI50: 317 µM (inactive)
[42]
  GI50: 169 µM (inactive)
[43]
  GI50: 111 µM (inactive)
[44]
  GI50: 237 µM (inactive)
[45]
  GI50: 385 µM (inactive)
[46]
  GI50: 412 µM (inactive)
[47]
  GI50: 77.4 µM (inactive)
[48]
  GI50: 277 µM (inactive)
[49]
  GI50: 218 µM (inactive)
[50]
  GI50: 308 µM (inactive)
[51]
  GI50: 133 µM (inactive)
[52]
  GI50: 175 µM (inactive)
[53]
  GI50: 175 µM (inactive)
[54]
  GI50: 192 µM (inactive)

## CC1(CO)C(O)CCC2(C)C1CCC1CC3CC12CCC3(O)CO (configuration not stated)
[1]
  GI50: 7.6 µM (inactive)
[2]
  GI50: 2.71 µM (inactive)
[3]
  GI50: 3.15 µM (inactive)
[4]
  GI50: 2.84 µM (inactive)
[5]
  GI50: > 100 µM (inactive)
[6]
  GI50: > 100 µM (inactive)
[7]
  GI50: 2.34 µM (inactive)
[8]
  GI50: 0.44 µM (active)
[9]
  GI50: > 64.6 µM (inactive)
[10]
  GI50: 12.1 µM (inactive)
[11]
  GI50: 2.39 µM (inactive)
[12]
  GI50: > 24.8 µM
[13]
  GI50: 0.433 µM (active)
[14]
  GI50: 18.6 µM (inactive)
[15]
  GI50: 1.04 µM (active)
[16]
  GI50: 24.8 µM (inactive)
[17]
  GI50: 6.5 µM (inactive)
[18]
  GI50: > 100 µM (inactive)
[19]
  GI50: 14 µM (inactive)
[21]
  GI50: > 100 µM (inactive)
[22]
  GI50: 4.72 µM (inactive)
[23]
  GI50: 26.2 µM (inactive)
[24]
  GI50: 5.04 µM (inactive)
[25]
  GI50: 5.12 µM (inactive)
[26]
  GI50: > 76.2 µM (inactive)
[27]
  GI50: 21.2 µM (inactive)
[28]
  GI50: 4.91 µM (inactive)
[29]
  GI50: 0.333 µM (active)
[30]
  GI50: > 28.2 µM (inactive)
[31]
  GI50: 6.67 µM (inactive)
[32]
  GI50: > 88.3 µM (inactive)
[33]
  GI50: > 100 µM (inactive)
[34]
  GI50: > 36.9 µM (inactive)
[35]
  GI50: 4.84 µM (inactive)
[36]
  GI50: 2.31 µM (inactive)
[37]
  GI50: 20 µM (inactive)
[38]
  GI50: 8.36 µM (inactive)
[39]
  GI50: 2.19 µM (inactive)
[40]
  GI50: 2.9 µM (inactive)
[41]
  GI50: > 100 µM (inactive)
[42]
  GI50: > 100 µM (inactive)
[43]
  GI50: 5.83 µM (inactive)
[44]
  GI50: > 100 µM (inactive)
[45]
  GI50: 16.7 µM (inactive)
[46]
  GI50: > 79.1 µM (inactive)
[47]
  GI50: > 51.8 µM (inactive)
[48]
  GI50: > 100 µM (inactive)
[49]
  GI50: 9.75 µM (inactive)
[50]
  GI50: 4.53 µM (inactive)
[51]
  GI50: > 81.3 µM (inactive)
[52]
  GI50: 0.789 µM (active)
[53]
  GI50: 25.3 µM (inactive)
[54]
  GI50: 64.7 µM (inactive)
